Measured values taken from patent US20140179619A1, “POLYPEPTIDE, NUCLEOTIDE SEQUENCE THEREOF, AND METHOD FOR USING THE SAME FOR PREVENTING DNA SYNTHESIS AND INHIBITING CELL PROLIFERATION” (Wuhan Yicheng Biotech, Inc., priority 2011, published 2014).
No end group written: not given here.

Legend:
[1] = system: human granulocytic leukemia cells K562; assay: Growth of human leukemia tumor in mice; conditions: K562 subcutaneous in mice, tumor weight vs control, injection every other day 7 times, after two weeks; PTD-P15 1 mg, Glivec 10 mcg
Description: After 5×10^6human granulocytic leukemia cells K562 injected into the subcutaneous tissue of mice, the mice were randomly divided into five groups. […] After two weeks, the mice were killed, from which the tumors grown in the subcutaneous tissue of the mice were taken out and weighed.

[2] = system: MCF-7 (breast cancer cell line); assay: Cell cycle distribution by FCM of GFP-positive transfected cells; type: cell-based; conditions: Cells MCF7, GFP-positive cells sorted two days after transfection
Description: (§1) The impact of P15 on cell proliferation is tested with NIH/3T3 (fibroblast and eptithlial cells, purchased from American ATCC, Cat No. CRL-1658) and MCF-7 (breast cancer cell line, purchased from American ATCC, Cat No. HTB-22).
(§2) Plasmid used for experiment: pEGFP-P15 (to express fused protein P15-GFP); control plasmid: pEGFP-N1
(§3) After the plasmid for transfection and the lipofectamine reagent (purchased from American Invitrogen, Cat No. 11668) were mixed, the mixture stayed for 15 minutes at room temperature. Then the mixture was first introduced into cells (with a cell density of about 50%) cultured in DMEM without serum for 5 hours of cultivation at 37° C. and next into SBF with a mass concentration of 10% for 48 hours of cultivation. […] In addition, by the use of FCM, it was easy to separate and purify the positive fluorescent protein cells. The symbolic indicators to test cell proliferation such as cell cycle were used to study and testify the impact of P15 on cell proliferation, while in these experiments, only the cells that express fluorescent proteins were used as control group.
(§4) First, we used the above mentioned plasmid to transfect 3T3 and MCF7, and used FCM to sort the positive GFP cells transfected with DNA and analyzed the cycle distribution of these cells two days later.

NIH/3T3 = assay: as above; type: cell-based
Description: as §1, §2, §3, §4

Cells MCF7 = assay: BrdU penetration in DNA (DNA synthesis) in transfected cells; type: cell-based
Description: (§5) DNA synthesis is the symbol of cell proliferation. In the next experiment, we tested the impact of P15 on DNA synthesis. Within the 15 hours after 3T3 and MCF7 transfecting pEGFP-N 1 and expressing P15-GFP plasmid for two days, the BrdU labeled […] that can penetrate in the newly synthesized DNA chain were added in cell culture fluid. The positive GFP cells in plasmid were detected and transfected with immunofluorescence technique, and the positive rate of BrdU penetration in DNA (this reflects the rate of DNA synthesis) was ascertained.

Cells 3T3 = assay: as above; type: cell-based
Description: as §5

[3] = Cells 3T3, GFP-positive cells sorted two days after transfection

Cc1ccc(NC(=O)c2ccc(CN3CCN(C)CC3)cc2)cc1Nc1nccc(-c2cccnc2)n1 [Glivec]
Inhibition ratio [1]: 48%

P15-GFP: fused protein consisted of P15 and GFP, P15 connected to the end N of GFP, expressed from plasmid pEGFP-P15 (MPYSTELIFYIEMDP-{GFP})
G0/G1 [2]: 85.6%
G2/M [2]: 3.3%
S [2]: 11.1%
G0/G1 (NIH/3T3; [3]): 52.1%
G2/M (NIH/3T3; [3]): 25.7%
S (NIH/3T3; [3]): 22.1%
Positive BrdU cells (Cells MCF7; Cells MCF7, BrdU 15 hours, two days after transfection): 5.2%
Inhibition ratio (Cells MCF7; Cells MCF7, DNA synthesis, relative to GFP): 83.4%
Positive BrdU cells (Cells 3T3; Cells 3T3, BrdU 15 hours, two days after transfection): 12.5%
Inhibition ratio (Cells 3T3; Cells 3T3, DNA synthesis, relative to GFP): 76.8%

asparaginic acid-arginine-arginine-asparaginic acid-leucine-tyrosine-asparaginic acid-asparaginic acid-asparaginic acid-asparaginic acid-lysine-asparaginic acid-arginine-methionine-alanine-glycine-threonine-methionine [Control polypeptide]
Inhibition ratio [1]: −2%

methionine-proline-tyrosine-serine-threonine-glutamic acid-leucine-isoleucine-phenylalanine-tyrosine-isoleucine-glutamic acid-methionine-asparaginic acid-proline [P15]
impact on cell apoptosis (NIH/3T3; expression of P15 in 3T3 and MCF7): no obvious impact on cell apoptosis
